For one experiment, the target named is Y337A HuAChE (Homo sapiens, UniProt P22303, Y368A). Nature of the experiment: HuAChE inhibition kinetics. The class given is biochemical. To be noted: Y337A HuAChE.
The target of the next experiment is E450A HuAChE (Homo sapiens, UniProt P22303, E481A). Nature of the experiment: HuAChE inhibition kinetics. It is filed as biochemical. To be noted: E450A HuAChE.
The target in a further experiment is E202A HuAChE (Homo sapiens, UniProt P22303, E233A). Nature of the experiment: HuAChE inhibition kinetics. It is filed as biochemical. To be noted: E202A HuAChE.
The next experiment deals with Y72N HuAChE (Homo sapiens, UniProt P22303, Y103N). Nature of the experiment: HuAChE inhibition kinetics. To be noted: Y72N HuAChE. The class given is biochemical.
The next experiment has as its target F295A/F338A/V407F HuAChE (Homo sapiens, UniProt P22303, F326A/F369A/V438F). Nature of the experiment: HuAChE inhibition kinetics. It is filed as biochemical. To be noted: F295A/F338A/V407F HuAChE.
A further experiment deals with Y341A HuAChE (Homo sapiens, UniProt P22303, Y372A). Nature of the experiment: HuAChE inhibition kinetics. The class given is biochemical. To be noted: Y341A HuAChE.
The next experiment has as its target F295A HuAChE (Homo sapiens, UniProt P22303, F326A). Description: HuAChE inhibition kinetics. The class given is biochemical. To be noted: F295A HuAChE.
The next experiment concerns the target Y133A HuAChE (Homo sapiens, UniProt P22303, Y164A). Nature of the experiment: HuAChE inhibition kinetics. It is filed as biochemical. To be noted: Y133A HuAChE.
For the next experiment, the target named is F295A/F297A HuAChE (Homo sapiens, UniProt P22303, F326A/F328A). Nature of the experiment: HuAChE inhibition kinetics. The class given is biochemical.
In another experiment the target is W86A/Y337A HuAChE (Homo sapiens, UniProt P22303, W117A/Y368A). Nature of the experiment: biochemical. It is filed as biochemical.
The next experiment addresses Y124A HuAChE (Homo sapiens, UniProt P22303, Y155A). Description: HuAChE inhibition kinetics. The class given is biochemical.
Another experiment deals with HuBChE-Wild Type (Homo sapiens, UniProt P06276). Nature of the experiment: HuBChE inhibition kinetics. It is filed as biochemical. To be noted: HuBChE-Wild Type.
The target in a further experiment is F295A/F338A HuAChE (Homo sapiens, UniProt P22303, F326A/F369A). Nature of the experiment: HuAChE inhibition kinetics. The class given is biochemical. To be noted: F295A/F338A HuAChE.
In the next experiment the target is W86A HuAChE (Homo sapiens, UniProt P22303, W117A). Description: HuAChE inhibition kinetics. It is filed as biochemical. To be noted: W86A HuAChE.
A further experiment addresses Wild Type HuAChE (Homo sapiens, UniProt P22303). Nature of the experiment: HuAChE inhibition kinetics. It is filed as biochemical. To be noted: Wild Type HuAChE.
In the next experiment the target is F295L/F297V HuAChE (Homo sapiens, UniProt P22303, F326L/F328V). Nature of the experiment: HuAChE inhibition kinetics. The class given is biochemical. To be noted: F295L/F297V HuAChE.
For another experiment, the target named is F295L/F297V/Y337A HuAChE (Homo sapiens, UniProt P22303, F326L/F328V/Y368A). Nature of the experiment: HuAChE inhibition kinetics. It is filed as biochemical. To be noted: F295L/F297V/Y337A HuAChE.
The target in experiment [1] is Y72N/Y124Q/W286A/ F295L/F297V/Y337A/ V407F HuAChE (Homo sapiens, UniProt P22303, F326L/F328V/V438F/W317A/Y103N/Y155Q/Y368A). Nature of the experiment: HuAChE inhibition kinetics. It is filed as biochemical. To be noted: Y72N/Y124Q/W286A/F295L/F297V/Y337A/V407F HuAChE.
The target of the next experiment is Y337F HuAChE (Homo sapiens, UniProt P22303, Y368F). Description: HuAChE inhibition kinetics. The class given is biochemical. To be noted: Y337F HuAChE.
For experiment [2], the target named is T1, D74N HuAChE (Homo sapiens, UniProt P22303, D105N). Nature of the experiment: HuAChE inhibition kinetics. To be noted: D74N HuAChE. It is filed as biochemical.
The target of another experiment is W286A HuAChE (Homo sapiens, UniProt P22303, W317A). Nature of the experiment: HuAChE inhibition kinetics. The class given is biochemical. To be noted: W286A HuAChE.
The next experiment deals with F297A HuAChE (Homo sapiens, UniProt P22303, F328A). Nature of the experiment: HuAChE inhibition kinetics. To be noted: F297A HuAChE. It is filed as biochemical.
Experiment [3] concerns the target Y72N/Y124Q/W286A/ F295L/F297V/Y337A HuAChE (Homo sapiens, UniProt P22303, F326L/F328V/W317A/Y103N/Y155Q/Y368A). Description: HuAChE inhibition kinetics. The class given is biochemical. To be noted: Y72N/Y124Q/W286A/F295L/F297V/Y337A HuAChE.
In another experiment the target is Y133F HuAChE (Homo sapiens, UniProt P22303, Y164F). Nature of the experiment: HuAChE inhibition kinetics. The class given is biochemical. To be noted: Y133F HuAChE.
In the next experiment the target is F338A HuAChE (Homo sapiens, UniProt P22303, F369A). Nature of the experiment: HuAChE inhibition kinetics. It is filed as biochemical. To be noted: F338A HuAChE.
The target in a further experiment is W86F HuAChE (Homo sapiens, UniProt P22303, W117F). Description: HuAChE inhibition kinetics. It is filed as biochemical. To be noted: W86F HuAChE.
The next experiment addresses E202Q HuAChE (Homo sapiens, UniProt P22303, E233Q). Description: HuAChE inhibition kinetics. It is filed as biochemical. To be noted: E202Q HuAChE.
A further experiment concerns the target G122A HuAChE (Homo sapiens, UniProt P22303, G153A). Description: HuAChE inhibition kinetics. It is filed as biochemical.
A further experiment concerns the target Y72N/Y124Q/W286A HuAChE (Homo sapiens, UniProt P22303, W317A/Y103N/Y155Q). Nature of the experiment: HuAChE inhibition kinetics. It is filed as biochemical.
Experiment [4] has as its target T1, D74N HuAChE. To be noted: D74N HuAChE vs wild type; cited from earlier work.

SMILES strings stand for the structures.

Y124A HuAChE, sequence (P22303 32-614 Y155A): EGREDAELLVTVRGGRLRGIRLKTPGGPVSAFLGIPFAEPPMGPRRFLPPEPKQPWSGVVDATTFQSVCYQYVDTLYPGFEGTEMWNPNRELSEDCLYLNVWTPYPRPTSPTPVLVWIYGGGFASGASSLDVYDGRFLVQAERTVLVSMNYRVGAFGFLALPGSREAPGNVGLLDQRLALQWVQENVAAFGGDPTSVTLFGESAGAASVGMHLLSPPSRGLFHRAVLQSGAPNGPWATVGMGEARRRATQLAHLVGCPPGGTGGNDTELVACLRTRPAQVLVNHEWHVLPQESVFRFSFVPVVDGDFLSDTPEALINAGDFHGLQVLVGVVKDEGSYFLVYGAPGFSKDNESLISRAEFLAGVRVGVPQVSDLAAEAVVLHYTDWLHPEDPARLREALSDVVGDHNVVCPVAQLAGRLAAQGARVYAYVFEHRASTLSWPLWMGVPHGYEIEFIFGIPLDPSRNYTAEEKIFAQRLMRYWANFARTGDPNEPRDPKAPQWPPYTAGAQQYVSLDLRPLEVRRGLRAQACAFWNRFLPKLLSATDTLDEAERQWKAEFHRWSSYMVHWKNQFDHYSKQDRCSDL
T1 sequence (P22303 32-614 D105N): as the sequence (P22303 32-614 Y155A) above, with D74N, A124Y counted along it
Y72N/Y124Q/W286A/ F295L/F297V/Y337A HuAChE, sequence (P22303 32-614 Y103N/Y155Q/W317A/F326L/F328V/Y368A): as the sequence (P22303 32-614 Y155A) above, with Y72N, A124Q, W286A, F295L, F297V, Y337A counted along it
W286A HuAChE, sequence (P22303 32-614 W317A): as the sequence (P22303 32-614 Y155A) above, with A124Y, W286A counted along it
F295A/F338A HuAChE, sequence (P22303 32-614 F326A/F369A): as the sequence (P22303 32-614 Y155A) above, with A124Y, F295A, F338A counted along it
Y341A HuAChE, sequence (P22303 32-614 Y372A): as the sequence (P22303 32-614 Y155A) above, with A124Y, Y341A counted along it
E450A HuAChE, sequence (P22303 32-614 E481A): as the sequence (P22303 32-614 Y155A) above, with A124Y, E450A counted along it
F295A HuAChE, sequence (P22303 32-614 F326A): as the sequence (P22303 32-614 Y155A) above, with A124Y, F295A counted along it
Y337A HuAChE, sequence (P22303 32-614 Y368A): as the sequence (P22303 32-614 Y155A) above, with A124Y, Y337A counted along it
Y337F HuAChE, sequence (P22303 32-614 Y368F): as the sequence (P22303 32-614 Y155A) above, with A124Y, Y337F counted along it
W86F HuAChE, sequence (P22303 32-614 W117F): as the sequence (P22303 32-614 Y155A) above, with W86F, A124Y counted along it
E202A HuAChE, sequence (P22303 32-614 E233A): as the sequence (P22303 32-614 Y155A) above, with A124Y, E202A counted along it
G122A HuAChE, sequence (P22303 32-614 G153A): as the sequence (P22303 32-614 Y155A) above, with G122A, A124Y counted along it
F338A HuAChE, sequence (P22303 32-614 F369A): as the sequence (P22303 32-614 Y155A) above, with A124Y, F338A counted along it
Y72N/Y124Q/W286A/ F295L/F297V/Y337A/ V407F HuAChE, sequence (P22303 32-614 Y103N/Y155Q/W317A/F326L/F328V/Y368A/V438F): as the sequence (P22303 32-614 Y155A) above, with Y72N, A124Q, W286A, F295L, F297V, Y337A, V407F counted along it
Y72N/Y124Q/W286A HuAChE, sequence (P22303 32-614 Y103N/Y155Q/W317A): as the sequence (P22303 32-614 Y155A) above, with Y72N, A124Q, W286A counted along it
Y133A HuAChE, sequence (P22303 32-614 Y164A): as the sequence (P22303 32-614 Y155A) above, with A124Y, Y133A counted along it
W86A/Y337A HuAChE, sequence (P22303 32-614 W117A/Y368A): as the sequence (P22303 32-614 Y155A) above, with W86A, A124Y, Y337A counted along it
W86A HuAChE, sequence (P22303 32-614 W117A): as the sequence (P22303 32-614 Y155A) above, with W86A, A124Y counted along it
HuBChE-Wild Type, sequence (P06276 29-602): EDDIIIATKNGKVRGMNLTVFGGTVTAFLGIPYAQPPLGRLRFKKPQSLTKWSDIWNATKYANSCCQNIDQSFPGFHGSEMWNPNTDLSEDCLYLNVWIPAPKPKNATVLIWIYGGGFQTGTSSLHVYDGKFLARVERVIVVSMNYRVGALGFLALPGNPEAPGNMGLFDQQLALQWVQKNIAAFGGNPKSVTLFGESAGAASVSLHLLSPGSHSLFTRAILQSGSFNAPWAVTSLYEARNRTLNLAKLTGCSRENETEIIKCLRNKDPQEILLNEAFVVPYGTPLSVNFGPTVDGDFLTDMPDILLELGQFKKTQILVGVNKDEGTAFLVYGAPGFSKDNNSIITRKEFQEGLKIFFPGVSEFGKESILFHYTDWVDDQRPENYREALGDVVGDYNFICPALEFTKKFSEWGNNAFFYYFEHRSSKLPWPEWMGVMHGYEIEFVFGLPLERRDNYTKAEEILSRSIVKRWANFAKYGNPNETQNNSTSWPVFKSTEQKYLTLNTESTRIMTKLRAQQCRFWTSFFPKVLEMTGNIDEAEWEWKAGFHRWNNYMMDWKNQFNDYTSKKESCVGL
Wild Type HuAChE, sequence (P22303 32-614): as the sequence (P22303 32-614 Y155A) above, with A124Y counted along it
E202Q HuAChE, sequence (P22303 32-614 E233Q): as the sequence (P22303 32-614 Y155A) above, with A124Y, E202Q counted along it
F297A HuAChE, sequence (P22303 32-614 F328A): as the sequence (P22303 32-614 Y155A) above, with A124Y, F297A counted along it
F295L/F297V/Y337A HuAChE, sequence (P22303 32-614 F326L/F328V/Y368A): as the sequence (P22303 32-614 Y155A) above, with A124Y, F295L, F297V, Y337A counted along it
Y133F HuAChE, sequence (P22303 32-614 Y164F): as the sequence (P22303 32-614 Y155A) above, with A124Y, Y133F counted along it
F295A/F338A/V407F HuAChE, sequence (P22303 32-614 F326A/F369A/V438F): as the sequence (P22303 32-614 Y155A) above, with A124Y, F295A, F338A, V407F counted along it
F295A/F297A HuAChE, sequence (P22303 32-614 F326A/F328A): as the sequence (P22303 32-614 Y155A) above, with A124Y, F295A, F297A counted along it
F295L/F297V HuAChE, sequence (P22303 32-614 F326L/F328V): as the sequence (P22303 32-614 Y155A) above, with A124Y, F295L, F297V counted along it
Y72N HuAChE, sequence (P22303 32-614 Y103N): as the sequence (P22303 32-614 Y155A) above, with Y72N, A124Y counted along it

Turning to `CNC(=O)Oc1ccc2c(c1)[C@]1(C)CCN(C)[C@@H]1N2C` [(−)-Physostigmine, (−)physostigmine salicylate], the “k2, carbamylation rate constant” value worked out at 1.10 ± 0.50 min⁻¹ at Y337A HuAChE; 0.15 ± 0.01 min⁻¹ at E450A HuAChE; 0.24 ± 0.05 min⁻¹ on E202A HuAChE; 0.9 ± 0.14 min⁻¹ on Y72N HuAChE; 0.2 ± 0.03 min⁻¹ at F295A/F338A/V407F HuAChE; 1.90 ± 0.30 min⁻¹ on Y341A HuAChE. Also, the “k2, carbamylation rate constant” value at F295A HuAChE was 1.60 ± 0.50 min⁻¹; at Y133A HuAChE it was 0.40 ± 0.02 min⁻¹; on F295A/F297A HuAChE, 0.6 ± 0.2 min⁻¹; at W86A/Y337A HuAChE, 1.2 ± 0.18 min⁻¹; at Y124A HuAChE, 6.0 ± 1.8 min⁻¹; at HuBChE-Wild Type it was 0.55 ± 0.05 min⁻¹. Besides, the “k2, carbamylation rate constant” value at F295A/F338A HuAChE was determined as 4.5 ± 0.9 min⁻¹; at W86A HuAChE, 0.80 ± 0.30 min⁻¹; at Wild Type HuAChE, 1.2 ± 0.5 min⁻¹; at F295L/F297V HuAChE, 2.0 ± 0.4 min⁻¹; at F295L/F297V/Y337A HuAChE, 0.75 ± 0.20 min⁻¹; in experiment [1] it was 1.25 ± 0.25 min⁻¹. In addition, the “k2, carbamylation rate constant” value was found to be 1.90 ± 0.40 min⁻¹ on Y337F HuAChE; 2.40 ± 0.50 min⁻¹ on D74N HuAChE [2]; 2.70 ± 0.80 min⁻¹ on W286A HuAChE; 0.60 ± 0.10 min⁻¹ at F297A HuAChE; 0.20 ± 0.05 min⁻¹ in [3]; 0.13 ± 0.01 min⁻¹ at Y133F HuAChE. In addition, the figures for the “k2, carbamylation rate constant” value at F338A HuAChE, on W86F HuAChE and at E202Q HuAChE were 0.40 ± 0.20 min⁻¹, 0.90 ± 0.20 min⁻¹ and 0.80 ± 0.20 min⁻¹, respectively. Also, the “ki, bimolecular rate constant of carbamylation” value on W86A/Y337A HuAChE is reported as 866 ±130 × 10^−4 M^−1min^−1; at Y124A HuAChE, 150±3 × 10^−4 M^−1min^−1; on F295A/F338A HuAChE, 78±19 × 10^−4 M^−1min^−1; in [1], 18±3 × 10^−4 M^−1min^−1; on W286A HuAChE, 365±40 × 10^−4 M^−1min^−1; in experiment [3] it was 34±1.2 × 10^−4 M^−1min^−1.

In the case of `CN(C)C(=O)Oc1ccc[n+](C)c1` [Pyridostigmine, pyridostigmine bromide], the “k2, carbamylation rate constant” value on Y337A HuAChE came to 0.80 ± 0.1 min⁻¹; at E450A HuAChE, 0.15 ± 0.02 min⁻¹; at E202A HuAChE it was 0.20 ± 0.05 min⁻¹; at F295A/F338A/V407F HuAChE, 0.5 ± 0.15 min⁻¹; on Y341A HuAChE, 1.0 ± 0.1 min⁻¹; on F295A HuAChE it was 0.17 ± 0.02 min⁻¹. Further, the “k2, carbamylation rate constant” value on Y133A HuAChE was 1.80 ± 0.3 min⁻¹; at Y124A HuAChE, 0.1 ± 0.01 min⁻¹; on HuBChE-Wild Type it was 0.30 ± 0.03 min⁻¹; at G122A HuAChE, 0.12 ± 0.02 min⁻¹; at F295A/F338A HuAChE, 0.5 ± 0.4 min⁻¹; at W86A HuAChE it was 0.68 ± 0.2 min⁻¹. Besides, the “k2, carbamylation rate constant” value at Wild Type HuAChE was determined as 0.77 ± 0.3 min⁻¹; on F295L/F297V/Y337A HuAChE, 0.55 ± 0.09 min⁻¹; at Y337F HuAChE it was 0.68 ± 0.2 min⁻¹; at D74N HuAChE [2] it was 1.0 ± 0.1 min⁻¹; at W286A HuAChE, 1.8 ± 0.5 min⁻¹; on F297A HuAChE, 0.64 ± 0.1 min⁻¹. For the same molecule, the “k2, carbamylation rate constant” value was found to be 0.40 ± 0.1 min⁻¹ in experiment [3]; 0.20 ± 0.04 min⁻¹ on Y133F HuAChE; 1.20 ± 0.4 min⁻¹ on F338A HuAChE; 0.80 ± 0.07 min⁻¹ at Y72N/Y124Q/W286A HuAChE; 0.65 ± 0.2 min⁻¹ at W86F HuAChE; 1.00 ± 0.2 min⁻¹ on E202Q HuAChE. Also, the “ki, bimolecular rate constant of carbamylation” value at Y124A HuAChE is on record as 13.8±0.4 × 10^−4 M^−1min^−1; on G122A HuAChE, 0.76±0.2 × 10^−4 M^−1min^−1; at F295A/F338A HuAChE, 0.8±0.5 × 10^−4 M^−1min^−1; on W286A HuAChE it was 14.0±0.6 × 10^−4 M^−1min^−1; in [3] it was 0.6±0.1 × 10^−4 M^−1min^−1; at Y72N/Y124Q/W286A HuAChE it was 9.3±0.8 × 10^−4 M^−1min^−1.

Turning to `CC[N+](C)(C)c1cccc(O)c1` [edrophonium], at D74N HuAChE [4], the “increase of the dissociation constant” value is 5 fold.

Source of the values: publication PMC2949283 (The Biochemical journal, 2009).
